From patent US11845740B2, “Glutaminyl cyclase inhibitors and the use thereof in treatment of various diseases” (OBSCHESTVO S OGRANICHENNOI OTVETSTVENNOSTIYU …, priority 2017, dated 2023)

Molecular target: recombinant intracellular human glutaminyl cyclase (Homo sapiens (Human), UniProt Q9NXS2)
Test: Enzymatic activity of human glutaminyl cyclase in vitro (fluorescent substrate Gln-bNA)
Assay type: biochemical
Conditions: 25° C., 50 μM Gln-bNA, pH 8.0
Method: The reaction mixture having a volume of 100-μl has contained 50 μM of fluorogenic substrate; ˜0.2 units of human pyroglutaminyl aminopeptidase (1 unit is defined as an amount hydrolyzing 1 micromole of pGlu-bNA per minute), and an aliquot of the recombinant intracellular human glutaminyl cyclase (gQC) in 50 mM trisaminomethane-HCl and 5% glycerol, a pH is 8.0.
The further course of the reaction was monitored spectrophotometrically (the wavelength of the excitation and emission were 320 and 410 nm). The enzyme activity was determined by an amount of the released 2-naphthyl amide (bNA), calculated from the calibration curve. The IC50 values were calculated using nonlinear regression of “inhibitor concentration”-“enzymatic activity” curve.

Sequence of recombinant intracellular human glutaminyl cyclase (Q9NXS2 whole entry): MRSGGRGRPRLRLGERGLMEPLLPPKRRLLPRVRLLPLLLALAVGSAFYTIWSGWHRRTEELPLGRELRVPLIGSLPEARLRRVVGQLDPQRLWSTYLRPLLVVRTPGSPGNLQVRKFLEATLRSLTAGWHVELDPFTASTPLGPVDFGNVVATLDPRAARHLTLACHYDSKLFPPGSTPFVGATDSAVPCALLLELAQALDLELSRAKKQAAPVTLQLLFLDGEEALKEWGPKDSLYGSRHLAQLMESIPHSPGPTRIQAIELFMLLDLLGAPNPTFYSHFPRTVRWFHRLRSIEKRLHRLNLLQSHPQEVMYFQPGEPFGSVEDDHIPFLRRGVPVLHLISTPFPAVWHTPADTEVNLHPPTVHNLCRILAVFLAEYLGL

O=C(NCCc1cnc[nH]1)NCCc1cnc[nH]1 [Compound III, N,N′-bis[2-(1H-imidazol-4-yl)ethyl]carbamide]
IC50: 3.5 µM | Ki: 2000 nM
